{
  "source": "ChEMBL document CHEMBL1649335",
  "about": "“Discovery of {1-[4-(2-{hexahydropyrrolo[3,4-c]pyrrol-2(1H)-yl}-1H-benzimidazol-1-yl)piperidin-1-yl]cyclooctyl}methanol, systemically potent novel non-peptide agonist of nociceptin/orphanin FQ receptor as analgesic for the treatment of neuropathic pain: design, synthesis, and structure-activity …” (Bioorg Med Chem, 2010)",
  "key": {"[1]": {"test_system": "Rattus norvegicus", "assay": "Antiallodynic activity against von Frey hair mechanically stimulated neuropathic pain in intrathecally dosed Sprague-Dawley rat assessed as increase of response threshold per site after 20 mins", "format": "functional"}, "[2]": {"test_system": "Rattus norvegicus", "assay": "Antiallodynic activity against von Frey hair mechanically stimulated neuropathic pain in Sprague-Dawley rat assessed as effect on allodynia in contralateral paw at 1 to 30 mg/kg, sc after 1 hr", "format": "functional, organism-based"}, "[3]": {"test_system": "Rattus norvegicus", "assay": "Antiallodynic activity against von Frey hair mechanically stimulated neuropathic pain in Sprague-Dawley rat assessed as increase of response threshold at 30 mg/kg, sc after 30 mins relative to control", "format": "functional", "settings": "route subcutaneous"}, "[4]": {"test_system": "Rattus norvegicus", "assay": "Antiallodynic activity against von Frey hair mechanically stimulated neuropathic pain in sc dosed Sprague-Dawley rat assessed as assessed as minimum effective dose to increase of response threshold after 2 hrs", "format": "functional"}, "[5]": {"species_on_record": "Rattus norvegicus", "assay": "Inhibition of rat central benzodiazepine receptor at 1 uM relative to control"}, "[6]": {"species_on_record": "Rattus norvegicus", "assay": "Inhibition of rat neuronal-type nicotinic acetylcholine receptor at 1 uM relative to control"}, "[7]": {"assay": "Drug level Sprague-Dawley rat cerebrospinal fluid at 10 mg/kg, sc after 0.5 hrs", "format": "ADME, organism-based", "parameters": "dose 10 mg/kg, route subcutaneous", "settings": "read-out: Drug uptake"}, "[8]": {"molecular_target": "Histamine H2 receptor (Cavia porcellus) (UniProt P47747)", "sequence (P47747 whole entry)": "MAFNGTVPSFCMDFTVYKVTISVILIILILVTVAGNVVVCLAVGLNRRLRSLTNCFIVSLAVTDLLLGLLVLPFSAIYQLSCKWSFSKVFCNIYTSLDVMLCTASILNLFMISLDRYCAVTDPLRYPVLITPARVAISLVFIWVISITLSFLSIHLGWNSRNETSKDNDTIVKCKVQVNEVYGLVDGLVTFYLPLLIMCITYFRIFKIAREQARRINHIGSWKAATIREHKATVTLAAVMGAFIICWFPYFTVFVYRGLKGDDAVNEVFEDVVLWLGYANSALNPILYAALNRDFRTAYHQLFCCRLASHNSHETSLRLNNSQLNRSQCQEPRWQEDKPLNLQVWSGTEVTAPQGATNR", "assay": "Inhibition of guinea pig histamine H2 receptor at 1 uM relative to control"}, "[9]": {"test_system": "Rattus norvegicus", "assay": "Antiallodynic activity against von Frey hair mechanically stimulated neuropathic pain in intrathecally dosed Sprague-Dawley rat assessed as assessed as minimum effective dose to increase of response threshold per site after 20 mins", "format": "functional"}, "[10]": {"species_on_record": "Rattus norvegicus", "assay": "Inhibition of rat K+ATP channel at 1 uM relative to control"}, "[11]": {"molecular_target": "Voltage-gated inwardly rectifying potassium channel KCNH2 (Homo sapiens, UniProt Q12809)", "assay": "Displacement of [3H]dofetilide from human ERG expressed in HEK293 cells after 60 mins by liquid scintillation counting", "format": "cell-based"}, "[12]": {"molecular_target": "Beta-1 adrenergic receptor (Homo sapiens) (UniProt P08588)", "sequence (P08588 whole entry, looked up)": "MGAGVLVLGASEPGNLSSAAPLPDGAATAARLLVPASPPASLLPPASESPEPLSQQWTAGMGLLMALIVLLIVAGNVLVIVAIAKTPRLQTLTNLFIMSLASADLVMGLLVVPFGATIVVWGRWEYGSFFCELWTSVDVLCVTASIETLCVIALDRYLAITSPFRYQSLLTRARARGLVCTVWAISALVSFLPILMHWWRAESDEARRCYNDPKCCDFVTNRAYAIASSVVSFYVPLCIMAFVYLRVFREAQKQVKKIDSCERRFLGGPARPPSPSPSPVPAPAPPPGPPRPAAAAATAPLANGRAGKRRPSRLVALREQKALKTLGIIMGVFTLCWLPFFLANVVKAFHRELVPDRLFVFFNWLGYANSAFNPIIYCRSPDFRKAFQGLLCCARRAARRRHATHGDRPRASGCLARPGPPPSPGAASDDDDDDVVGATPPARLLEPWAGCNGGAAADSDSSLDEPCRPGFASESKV", "assay": "Inhibition of human beta1 adrenoceptor at 1 uM relative to control"}, "[13]": {"test_system": "Rattus norvegicus", "assay": "Antiallodynic activity against von Frey hair mechanically stimulated neuropathic pain in Sprague-Dawley rat assessed as effect on allodynia in contralateral paw at 5.5 to 170 nmol/site administered intrathecally after 20 mins", "format": "functional, organism-based"}, "[14]": {"molecular_target": "Estrogen receptor (Homo sapiens) (UniProt P03372)", "sequence (P03372 whole entry)": "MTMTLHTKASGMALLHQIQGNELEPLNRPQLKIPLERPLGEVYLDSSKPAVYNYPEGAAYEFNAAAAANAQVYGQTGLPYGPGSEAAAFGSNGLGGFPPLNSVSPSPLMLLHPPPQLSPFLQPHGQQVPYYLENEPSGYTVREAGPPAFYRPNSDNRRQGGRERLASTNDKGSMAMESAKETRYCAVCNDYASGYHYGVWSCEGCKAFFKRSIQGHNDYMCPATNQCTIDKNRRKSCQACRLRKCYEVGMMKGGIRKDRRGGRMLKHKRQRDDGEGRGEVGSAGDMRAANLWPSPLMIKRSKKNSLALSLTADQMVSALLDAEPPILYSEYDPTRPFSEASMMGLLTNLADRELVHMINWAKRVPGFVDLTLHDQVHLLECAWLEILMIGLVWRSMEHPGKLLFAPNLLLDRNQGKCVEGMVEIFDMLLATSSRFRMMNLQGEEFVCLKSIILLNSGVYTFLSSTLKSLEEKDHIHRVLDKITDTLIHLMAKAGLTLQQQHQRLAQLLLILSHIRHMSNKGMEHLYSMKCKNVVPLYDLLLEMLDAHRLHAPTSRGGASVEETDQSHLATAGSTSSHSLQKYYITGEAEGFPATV", "assay": "Inhibition of human estrogen receptor beta at 1 uM relative to control"}, "[15]": {"molecular_target": "Sodium-dependent dopamine transporter (Homo sapiens) (UniProt Q01959)", "sequence (Q01959 whole entry)": "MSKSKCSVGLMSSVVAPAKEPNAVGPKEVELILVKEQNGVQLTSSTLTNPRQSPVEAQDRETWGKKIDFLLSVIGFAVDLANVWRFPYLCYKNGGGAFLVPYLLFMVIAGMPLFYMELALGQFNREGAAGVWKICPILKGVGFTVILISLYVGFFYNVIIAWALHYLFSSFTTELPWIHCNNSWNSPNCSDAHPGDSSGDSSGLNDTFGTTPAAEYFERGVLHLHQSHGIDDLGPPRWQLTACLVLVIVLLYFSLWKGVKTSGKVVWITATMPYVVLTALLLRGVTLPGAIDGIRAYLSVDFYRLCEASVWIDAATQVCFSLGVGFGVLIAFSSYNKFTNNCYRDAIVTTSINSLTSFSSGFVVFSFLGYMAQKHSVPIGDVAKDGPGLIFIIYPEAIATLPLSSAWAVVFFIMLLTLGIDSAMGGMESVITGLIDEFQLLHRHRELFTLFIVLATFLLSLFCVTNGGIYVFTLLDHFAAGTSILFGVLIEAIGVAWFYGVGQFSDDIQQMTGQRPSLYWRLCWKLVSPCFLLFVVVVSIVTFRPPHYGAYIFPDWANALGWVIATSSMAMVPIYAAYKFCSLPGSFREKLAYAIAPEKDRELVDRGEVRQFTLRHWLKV", "assay": "Inhibition of human dopamine transporter at 1 uM relative to control"}, "[16]": {"test_system": "Rattus norvegicus", "assay": "Toxicity in von Frey hair mechanically stimulated neuropathic pain Sprague-Dawley rat model assessed as respiratory depression at up to 30 mg/kg, sc", "format": "organism-based", "parameters": "dose 30 mg/kg, route subcutaneous", "settings": "in vivo"}, "[17]": {"species_on_record": "Rattus norvegicus", "assay": "Inhibition of rat glutamate receptor at 1 uM relative to control"}, "[18]": {"molecular_target": "Nociceptin receptor (Homo sapiens, UniProt P41146)", "sequence (P41146 whole entry)": "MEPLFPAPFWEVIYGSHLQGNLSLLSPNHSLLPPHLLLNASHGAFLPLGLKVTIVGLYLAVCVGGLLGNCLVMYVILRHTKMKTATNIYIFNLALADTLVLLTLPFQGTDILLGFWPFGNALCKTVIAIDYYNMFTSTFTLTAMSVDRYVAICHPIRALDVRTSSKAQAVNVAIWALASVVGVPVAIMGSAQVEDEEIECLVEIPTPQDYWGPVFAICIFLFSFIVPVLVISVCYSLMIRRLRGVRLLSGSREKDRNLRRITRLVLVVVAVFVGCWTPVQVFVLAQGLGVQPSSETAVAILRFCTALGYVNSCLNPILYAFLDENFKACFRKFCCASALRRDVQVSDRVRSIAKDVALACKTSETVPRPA", "assay": "biochemical"}, "[19]": {"species_on_record": "Rattus norvegicus", "assay": "Inhibition of rat kainate receptor at 1 uM relative to control"}, "[20]": {"species_on_record": "Rattus norvegicus", "assay": "Inhibition of rat sigma receptor at 1 uM relative to control"}, "[21]": {"assay": "in vitro", "settings": "human, liver microsomes"}, "[22]": {"molecular_target": "Adenosine receptor A1 (Homo sapiens) (UniProt P30542)", "sequence (P30542 whole entry)": "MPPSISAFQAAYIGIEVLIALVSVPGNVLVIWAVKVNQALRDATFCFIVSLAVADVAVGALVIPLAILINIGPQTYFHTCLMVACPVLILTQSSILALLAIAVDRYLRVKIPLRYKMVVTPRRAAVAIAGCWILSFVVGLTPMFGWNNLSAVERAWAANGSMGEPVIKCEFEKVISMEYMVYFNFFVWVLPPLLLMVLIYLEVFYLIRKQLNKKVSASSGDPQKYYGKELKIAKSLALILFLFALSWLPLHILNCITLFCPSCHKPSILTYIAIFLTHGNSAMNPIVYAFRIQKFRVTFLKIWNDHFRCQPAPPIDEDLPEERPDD", "assay": "Inhibition of human adenosine A1 receptor at 1 uM relative to control"}, "[23]": {"molecular_target": "monoamine oxidase B (Homo sapiens, UniProt P27338)", "sequence (P27338 whole entry)": "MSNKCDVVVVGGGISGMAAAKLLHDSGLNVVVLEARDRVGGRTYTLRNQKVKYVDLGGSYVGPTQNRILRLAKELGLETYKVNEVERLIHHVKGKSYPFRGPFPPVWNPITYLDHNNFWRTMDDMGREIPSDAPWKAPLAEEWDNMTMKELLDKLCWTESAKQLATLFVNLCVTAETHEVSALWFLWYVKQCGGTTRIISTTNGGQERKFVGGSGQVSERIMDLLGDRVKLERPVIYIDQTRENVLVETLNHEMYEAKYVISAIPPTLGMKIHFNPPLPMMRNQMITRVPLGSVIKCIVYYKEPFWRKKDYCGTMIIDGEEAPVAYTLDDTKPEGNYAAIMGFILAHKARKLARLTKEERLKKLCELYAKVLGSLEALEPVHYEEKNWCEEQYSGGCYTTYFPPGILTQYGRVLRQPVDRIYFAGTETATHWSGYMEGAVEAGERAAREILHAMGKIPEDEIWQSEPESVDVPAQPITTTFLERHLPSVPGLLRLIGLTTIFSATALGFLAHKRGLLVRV", "assay": "Inhibition of human monoamine oxidase B at 1 uM relative to control"}, "[24]": {"test_system": "Rattus norvegicus", "assay": "Antiallodynic activity against von Frey hair mechanically stimulated neuropathic pain in sc dosed Sprague-Dawley rat assessed as increase of response threshold", "format": "functional, organism-based"}, "[25]": {"molecular_target": "5-hydroxytryptamine receptor 2A (Homo sapiens) (UniProt P28223)", "sequence (P28223 whole entry)": "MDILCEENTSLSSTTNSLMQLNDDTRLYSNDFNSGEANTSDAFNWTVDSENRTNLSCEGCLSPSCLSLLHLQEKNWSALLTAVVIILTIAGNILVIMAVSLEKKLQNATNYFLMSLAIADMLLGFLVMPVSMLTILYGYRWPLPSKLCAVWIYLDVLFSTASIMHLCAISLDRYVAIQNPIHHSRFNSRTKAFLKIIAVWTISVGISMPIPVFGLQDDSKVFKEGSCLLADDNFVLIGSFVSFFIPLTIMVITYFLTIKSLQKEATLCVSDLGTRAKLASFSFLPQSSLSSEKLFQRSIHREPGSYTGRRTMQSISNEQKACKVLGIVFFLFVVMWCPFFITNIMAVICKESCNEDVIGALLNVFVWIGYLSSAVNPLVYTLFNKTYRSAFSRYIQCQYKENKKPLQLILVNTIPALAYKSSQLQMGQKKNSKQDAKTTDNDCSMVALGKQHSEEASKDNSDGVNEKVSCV", "assay": "Inhibition of human 5-HT2A receptor at 1 uM relative to control"}, "[26]": {"test_system": "Rattus norvegicus", "assay": "Antiallodynic activity against von Frey hair mechanically stimulated neuropathic pain in sc dosed Sprague-Dawley rat assessed as assessed as minimum effective dose to increase of response threshold after 4 hrs", "format": "functional, organism-based"}, "[27]": {"species_on_record": "Rattus norvegicus", "assay": "Inhibition of rat choline transporter at 1 uM relative to control"}, "[28]": {"test_system": "Rattus norvegicus", "assay": "Antiallodynic activity against von Frey hair mechanically stimulated neuropathic pain in sc dosed Sprague-Dawley rat assessed as increase of response threshold after 1 hr", "format": "functional"}, "[29]": {"test_system": "Rattus norvegicus", "assay": "Antiallodynic activity against von Frey hair mechanically stimulated neuropathic pain in icv dosed Sprague-Dawley rat assessed as increase of response threshold per site after 20 mins", "format": "functional"}, "[30]": {"species_on_record": "Rattus norvegicus", "assay": "Inhibition of rat thyroid hormone receptor at 1 uM relative to control"}, "[31]": {"test_system": "Rattus norvegicus", "assay": "Toxicity in von Frey hair mechanically stimulated neuropathic pain Sprague-Dawley rat model assessed as sedation effect at up to 170 nmol/site, administered intrathecally", "format": "organism-based", "settings": "in vivo, icv_or_intrathecal"}, "[32]": {"test_system": "Rattus norvegicus", "assay": "Antiallodynic activity against von Frey hair mechanically stimulated neuropathic pain in Sprague-Dawley rat assessed as effect on allodynia in contralateral paw at 1 to 30 mg/kg, sc after 4 hrs", "format": "functional, organism-based"}, "[33]": {"test_system": "Rattus norvegicus", "assay": "Antiallodynic activity against von Frey hair mechanically stimulated neuropathic pain in Sprague-Dawley rat assessed as increase of response threshold at 1 to 30 mg/kg, sc", "format": "functional, organism-based", "settings": "TDE = time-dependent effect"}, "[34]": {"test_system": "Rattus norvegicus", "assay": "Antiallodynic activity against von Frey hair mechanically stimulated neuropathic pain in sc dosed Sprague-Dawley rat assessed as increase of response threshold after 30 mins", "format": "functional", "settings": "0.5 h"}, "[35]": {"test_system": "Rattus norvegicus", "assay": "Antiallodynic activity against von Frey hair mechanically stimulated neuropathic pain in Sprague-Dawley rat assessed as effect on allodynia in contralateral paw at 1 to 30 mg/kg, sc after 2 hrs", "format": "functional, organism-based"}, "[36]": {"molecular_target": "Substance-K receptor (Homo sapiens) (UniProt P21452)", "assay": "Inhibition of human tachykinin NK2 receptor at 1 uM relative to control"}, "[37]": {"test_system": "Rattus norvegicus", "assay": "Toxicity in von Frey hair mechanically stimulated neuropathic pain Sprague-Dawley rat model assessed as sedation effect at up to 170 nmol/site, icv", "format": "organism-based", "settings": "in vivo, icv_or_intrathecal"}, "[38]": {"test_system": "Rattus norvegicus", "assay": "Antiallodynic activity against von Frey hair mechanically stimulated neuropathic pain in Sprague-Dawley rat assessed as increase of response threshold at 30 mg/kg, sc after 1 hr relative to control", "format": "functional", "settings": "route subcutaneous"}, "[39]": {"test_system": "Rattus norvegicus", "assay": "Antiallodynic activity against von Frey hair mechanically stimulated neuropathic pain in icv dosed Sprague-Dawley rat assessed as assessed as minimum effective dose to increase of response threshold per site after 20 mins", "format": "functional"}, "[40]": {"test_system": "Rattus norvegicus", "assay": "Antiallodynic activity against von Frey hair mechanically stimulated neuropathic pain in intrathecally dosed Sprague-Dawley rat assessed as increase of response threshold per site after 1 hr", "format": "functional"}, "[41]": {"molecular_target": "Sodium-dependent noradrenaline transporter (Homo sapiens) (UniProt P23975)", "sequence (P23975 whole entry)": "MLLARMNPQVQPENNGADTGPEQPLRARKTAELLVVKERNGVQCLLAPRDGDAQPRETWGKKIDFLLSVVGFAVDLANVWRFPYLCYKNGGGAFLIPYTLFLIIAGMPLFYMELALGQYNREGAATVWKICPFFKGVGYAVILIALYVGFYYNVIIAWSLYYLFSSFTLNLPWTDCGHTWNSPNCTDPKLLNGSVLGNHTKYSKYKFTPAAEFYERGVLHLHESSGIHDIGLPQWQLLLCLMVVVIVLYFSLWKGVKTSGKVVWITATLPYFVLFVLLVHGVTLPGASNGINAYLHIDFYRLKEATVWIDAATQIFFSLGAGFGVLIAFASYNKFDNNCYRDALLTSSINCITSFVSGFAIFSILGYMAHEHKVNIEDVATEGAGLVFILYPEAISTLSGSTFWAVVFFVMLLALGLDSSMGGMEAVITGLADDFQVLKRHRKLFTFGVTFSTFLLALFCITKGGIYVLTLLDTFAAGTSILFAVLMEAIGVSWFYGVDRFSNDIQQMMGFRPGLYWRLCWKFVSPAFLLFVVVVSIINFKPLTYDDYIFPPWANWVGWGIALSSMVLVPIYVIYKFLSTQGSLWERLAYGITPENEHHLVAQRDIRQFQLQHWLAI", "assay": "Inhibition of human norepinephrine transporter at 1 uM relative to control"}, "[42]": {"molecular_target": "Acetylcholinesterase (Homo sapiens) (UniProt P22303)", "sequence (P22303 whole entry)": "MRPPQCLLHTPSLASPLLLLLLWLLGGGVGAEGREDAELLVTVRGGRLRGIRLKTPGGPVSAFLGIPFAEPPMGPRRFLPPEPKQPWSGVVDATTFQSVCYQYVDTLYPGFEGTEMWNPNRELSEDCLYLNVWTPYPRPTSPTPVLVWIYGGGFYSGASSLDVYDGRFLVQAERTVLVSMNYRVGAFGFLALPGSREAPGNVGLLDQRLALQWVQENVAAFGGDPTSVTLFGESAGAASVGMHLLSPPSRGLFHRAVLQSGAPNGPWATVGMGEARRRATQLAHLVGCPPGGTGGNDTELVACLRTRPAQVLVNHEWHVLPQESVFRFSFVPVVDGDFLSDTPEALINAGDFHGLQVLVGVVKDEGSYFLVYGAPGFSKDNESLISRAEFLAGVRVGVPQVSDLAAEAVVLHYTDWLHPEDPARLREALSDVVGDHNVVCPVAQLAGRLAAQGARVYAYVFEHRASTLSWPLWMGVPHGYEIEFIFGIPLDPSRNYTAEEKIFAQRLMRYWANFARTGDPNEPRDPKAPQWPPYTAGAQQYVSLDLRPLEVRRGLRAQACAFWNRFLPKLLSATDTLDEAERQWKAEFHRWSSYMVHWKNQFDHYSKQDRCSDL", "assay": "Inhibition of human acetylcholine esterase at 1 uM relative to control"}, "[43]": {"molecular_target": "Muscarinic acetylcholine receptor (Rattus norvegicus) (UniProt P08482+P08483+P08485+P08911+P10980)", "assay": "Inhibition of rat muscarinic M receptor at 1 uM relative to control"}, "[44]": {"species_on_record": "Rattus norvegicus", "assay": "Inhibition of rat GABA transporter at 1 uM relative to control"}},
  "note": "Calls of active or inactive are those of the source.",
  "data": [
    {"smiles": "OCC1(N2CCC(n3c(N4CC5CNCC5C4)nc4ccccc43)CC2)CCCCCCC1", "note": "(stereo unspecified)", "values": [
      {"measurement": "Activity", "setting": "[1]", "value": "Dose-dependent effect"},
      {"measurement": "ED50", "setting": "[1]", "value": 80, "unit": "nmol"},
      {"measurement": "Activity", "setting": "[2]", "value": "inactive"},
      {"measurement": "Activity", "setting": "[3]", "value": 57.6, "unit": "%"},
      {"measurement": "MED", "setting": "[4]", "value": 30, "unit": "mg/kg"},
      {"measurement": "inhibition", "setting": "[5]", "value": "< 10", "unit": "%"},
      {"measurement": "inhibition", "setting": "[6]", "value": "< 10", "unit": "%"},
      {"measurement": "concentration at 0.5 h", "setting": "[7]", "value": 0.011, "unit": "µg/mL"},
      {"measurement": "inhibition", "setting": "[8]", "value": 22, "unit": "%"},
      {"measurement": "MED", "setting": "[9]", "value": 55, "unit": "nmol"},
      {"measurement": "inhibition", "setting": "[10]", "value": "< 10", "unit": "%"},
      {"measurement": "Ki", "setting": "[11]", "value": 3.7, "unit": "µM"},
      {"measurement": "inhibition", "setting": "[12]", "value": "< 10", "unit": "%"},
      {"measurement": "Activity", "setting": "[13]", "value": "inactive"},
      {"measurement": "inhibition", "setting": "[14]", "value": "< 10", "unit": "%"},
      {"measurement": "inhibition", "setting": "[15]", "value": "< 10", "unit": "%"},
      {"measurement": "Activity", "setting": "[16]", "value": "Non-toxic"},
      {"measurement": "inhibition", "setting": "[17]", "value": "< 10", "unit": "%"},
      {"measurement": "Ki", "setting": "[18]", "value": 0.00144, "unit": "µM"},
      {"measurement": "inhibition", "setting": "[19]", "value": 32, "unit": "%"},
      {"measurement": "inhibition", "setting": "[20]", "value": 10, "unit": "%"},
      {"measurement": "half-life at 1 µM", "setting": "[21]", "value": 45.6, "unit": "min"},
      {"measurement": "inhibition", "setting": "[22]", "value": "< 10", "unit": "%"},
      {"measurement": "inhibition at 1 µM", "setting": "[23]", "value": "< 10", "unit": "%"},
      {"measurement": "Activity", "setting": "[24]", "value": "Dose-dependent effect"},
      {"measurement": "inhibition", "setting": "[25]", "value": "< 10", "unit": "%"},
      {"measurement": "MED", "setting": "[26]", "value": "inactive"},
      {"measurement": "inhibition", "setting": "[27]", "value": 11, "unit": "%"},
      {"measurement": "ED50", "setting": "[28]", "value": 10.8, "unit": "mg/kg"},
      {"measurement": "ED50", "setting": "[29]", "value": 170, "unit": "nmol"},
      {"measurement": "inhibition", "setting": "[30]", "value": "< 10", "unit": "%"},
      {"measurement": "Activity", "setting": "[31]", "value": "Non-toxic"},
      {"measurement": "Activity", "setting": "[32]", "value": "inactive"},
      {"measurement": "Activity", "setting": "[33]", "value": "tde"},
      {"measurement": "ED50", "setting": "[34]", "value": 26.8, "unit": "mg/kg"},
      {"measurement": "Activity", "setting": "[35]", "value": "inactive"},
      {"measurement": "inhibition", "setting": "[36]", "value": "< 10", "unit": "%"},
      {"measurement": "Activity", "setting": "[37]", "value": "Non-toxic"},
      {"measurement": "Activity", "setting": "[38]", "value": 79.3, "unit": "%"},
      {"measurement": "MED", "setting": "[39]", "value": 55, "unit": "nmol"},
      {"measurement": "Activity", "setting": "[40]", "value": "Dose-dependent effect"},
      {"measurement": "ED50", "setting": "[40]", "value": ">170", "unit": "nmol"},
      {"measurement": "inhibition", "setting": "[41]", "value": "< 10", "unit": "%"},
      {"measurement": "inhibition", "setting": "[42]", "value": "< 10", "unit": "%"},
      {"measurement": "inhibition", "setting": "[43]", "value": 38, "unit": "%"},
      {"measurement": "inhibition", "setting": "[44]", "value": 24, "unit": "%"}
    ]}
  ]
}
